Results taken from patent US20230406853A1, “COVALENT CDK2-BINDING COMPOUNDS FOR THERAPEUTIC PURPOSES” (Umbra Therapeutics, Inc., priority 2021, published 2023).

Target: CycE1-CDK2 (Homo sapiens, UniProt P24941)
Assay: Cdk2 Enzymatic TR-FRET Assay
Format: biochemical
Conditions: CDK2/CycE 5 nM, ATP 100 μM, 60 minutes pre-incubation with compound; read-out: CDK2 Kinase
From the text: A TR-FRET system was used to detect CycE1-CDK2 kinase activity. The assay used a Europium-labeled anti-phospho-Ser/Thr antibody and ULight™-labeled peptide substrate (eIF4E-binding protein 1). When CycE1-CDK2 phosphorylates the peptide the phosphorylated Thr is recognized by the Europium-labeled anti-phospho-Ser/Thr antibody. Upon excitation of the Europium donor fluorophore at 337 nm, energy is transferred to the ULight™ acceptor dye on the substrate, resulting in the emission of light at 665 nm. The fluorescent signal is proportional to the level of ULight™ peptide phosphorylation and to the kinase activity.
The stock solution was prepared as follows: • 1× Reaction buffer: 50 mM HEPES pH 7.5, 10 mM MgCl2, 0.5 mM TCEP, 0.01% Tween®20, 1 mM EGTA, 0.001% fatty acid free (faf)-BSA; • 1× Detection buffer: equilibrate the Detection buffer at RT for at least 20 minutes then dilute 10-fold the stock in water; • 4×ENZYME mix: CDK2/CycE enzyme (5 nM final concentration in kinase reaction) in 1× Reaction buffer; • 4×SUBSTRATE mix: 4E-BP substrate (50 nM final concentration in kinase reaction)+ATP (100 μM final concentration in kinase reaction) in 1× Reaction buffer • 2×STOP/DETECTION mix: EDTA (10 mM final concentration in assay)+Anti-Phosphate antibody (0.5 nM final concentration in assay) in 1× Detection buffer • Neutral Control: Assay with no inhibition (MAX activity) • Inhibitor Control: Assay with IC100 (1 mM) reference inhibitor JNJ7706621 (MIN activity)
The assay was assembled directly in a white, small volume, Proxiplate (PerkinElmer) as follows: • Step 1: Charge compounds=5 μL/well • Step 2: Charge kinase=2.5 μL/well→total volume 7.5 μL/well • The plate is sealed and incubated at room temperature for 60 minutes • Step 3: Substrate mix (substrate/ATP)=2.5 μL/well→total enzymatic reaction volume 10 μL/well • The plate is sealed and incubated at room temperature for 60 minutes • Step 4: Stop/Detection mix (EDTA/antibody)=10 μL/well→total volume 20 μL/well • The plate is sealed and incubated at room temperature for at least 2 hours and fluorescence signal is measured at PHERAstar FSX The reading conditions are the followings for PHERAstar FSX:
A 384-microtiter plate (MTP), containing 20 test compounds in eight-points dose response, is prepared. Test compounds dose response curves are prepared in automation in 100% DMSO in a CyBio Felix, starting from a DMSO stock solution of 10 mM. To obtain the eight-points dose-response curve, a serial dilution protocol in 100% DMSO is performed for each compound by using a 96 MTP as a support. 20 μL of the 10 mM stock solutions are transferred in row A of a 96 MTP U-bottom from column 2 to 11 for a total of 10 compounds/plate. Starting from the 10 mM stock, serial dilutions across rows, from A to B and proceeding up to H, are performed for each compound by transferring 6.3 μL of the more concentrated fluid in 13.7 μL of 100% DMSO.
In order to generate duplicate data points each well of the 96 MTP is then replicated into two wells of a 384 MTP plate for each compound and for each concentration to be tested. The 384 MTP compound plate is used as source plate in a “mother to child” process with a CyBi®-Well dispenser in which 1 μL of compound is moved into a destination plate pre-filled with 24 μL of reaction buffer, obtaining 2× concentrated compound solution.
Genedata Screener® 17.0 was used for data analysis. In the implemented workflow, the following calculations were conducted: • Calculate the Response Value (KRV) from the respective original data as follow:
HTRF Assay: Ratio=665 nm_FRET/620 nm_Ab*10000 • Calculate the % Inhibition of the compound (Inhibitory effect). KRV was normalized versus Neutral Controls and Inhibitor Controls (JNJ7706621) to obtain Activity % according to the following formula:
Activity %=−100*(x−<Neutral Control>)/(<Inhibitor Control>−<Neutral Control>) […]

`CS(=O)(=O)N1CCC(Nc2ncc3ccc(=O)n(CC(=O)Nc4ccc(S(=O)(=O)n5cnc(C6CCCC6)n5)cc4)c3n2)CC1` [Compound 273] and `CN1CCC(Nc2ncc3ccc(=O)n(CC(=O)Nc4ccc(S(=O)(=O)n5cnc(C6CC6)n5)cc4)c3n2)CC1` [Compound 280] cannot be ordered by IC50: over 200 µM for the first, over 200 µM for the second.

`CS(=O)(=O)N1CCC(Nc2ncc3ccc(=O)n(CCS(=O)(=O)n4cnc(-c5ccccc5)n4)c3n2)CC1` [Compound 274] and `CS(=O)(=O)N1CCC(Nc2ncc3cc(Cl)c(=O)n(CCCS(=O)(=O)n4cnc(-c5ccccc5)n4)c3n2)CC1` [Compound 287] cannot be ordered by IC50: under 10 µM for the first, under 10 µM for the second.

`O=C(Cn1c(=O)ccc2cnc(NC3CCOC3)nc21)Nc1ccc(S(=O)(=O)n2cnc(C3CC3)n2)cc1` (stereo not shown) [Compound 275] and `O=C(Cn1c(=O)ccc2cnc(NC3CCOCC3)nc21)Nc1ccc(S(=O)(=O)n2cnc(C3CC3)n2)cc1` [Compound 279] cannot be ordered by IC50: under 10 µM for the first, under 10 µM for the second.

`CS(=O)(=O)N1CCC(Nc2ncc3cc(CCO)c(=O)n(CCCS(=O)(=O)n4cnc(C5CC5)n4)c3n2)CC1` [Compound 276] and `CS(=O)(=O)N1CCC(Nc2ncc3cc(CO)c(=O)n(CCCS(=O)(=O)n4cnc(C5CC5)n4)c3n2)CC1` [Compound 300] cannot be ordered by IC50: under 10 µM for the first, under 10 µM for the second.

First: CC(C)N1CCC(Nc2ncc3ccc(=O)n(CCCS(=O)(=O)n4cnc(C5CC5)n4)c3n2)CC1 [Compound 277]
Second: Cc1cc2cnc(NC3CCN(S(C)(=O)=O)CC3)nc2n(CCCS(=O)(=O)n2cnc(C3CC3)n2)c1=O [Compound 289]
The IC50 of the first is higher: over 200 µM for the first, under 10 µM for the second.

`O=C(Cn1c(=O)ccc2cnc(NCC3CC3)nc21)Nc1ccc(S(=O)(=O)n2cnc(C3CC3)n2)cc1` [Compound 278] and `O=C(Cn1c(=O)ccc2cnc(NCC3CCCCC3)nc21)Nc1ccc(S(=O)(=O)n2cnc(C3CC3)n2)cc1` [Compound 282] cannot be ordered by IC50: over 200 µM for the first, over 200 µM for the second.

`O=C(Cn1c(=O)ccc2cnc(NC3CC(F)(F)C3)nc21)Nc1ccc(S(=O)(=O)n2cnc(C3CC3)n2)cc1` [Compound 281] and `O=C(Cn1c(=O)ccc2cnc(NC3CC3)nc21)Nc1ccc(S(=O)(=O)n2cnc(C3CC3)n2)cc1` [Compound 283] cannot be ordered by IC50: under 10 µM for the first, under 10 µM for the second.

`CS(=O)(=O)N1CCC(Nc2ncc3cc(CCO)c(=O)n(CCCS(=O)(=O)n4cnc(-c5ccccc5)n4)c3n2)CC1` [Compound 284] and `CS(=O)(=O)N1CCC(Nc2ncc3cc(CO)c(=O)n(CCCS(=O)(=O)n4cnc(-c5ccccc5)n4)c3n2)CC1` [Compound 290] cannot be ordered by IC50: under 10 µM for the first, under 10 µM for the second.

`CS(=O)(=O)N1CCC(Nc2ncc3cc(Cl)c(=O)n(CCCS(=O)(=O)n4cncn4)c3n2)CC1` [Compound 285] and `Cc1cc2cnc(NC3CCN(S(C)(=O)=O)CC3)nc2n(CCCS(=O)(=O)n2cncn2)c1=O` [Compound 298] cannot be ordered by IC50: under 10 µM for the first, under 10 µM for the second.

`CS(=O)(=O)N1CCC(Nc2ncc3cc(Cl)c(=O)n(CCCS(=O)(=O)n4cnc(C5CC5)n4)c3n2)CC1` [Compound 286] and `COCCc1cc2cnc(NC3CCN(S(C)(=O)=O)CC3)nc2n(CCCS(=O)(=O)n2cnc(C3CC3)n2)c1=O` [Compound 288] cannot be ordered by IC50: under 10 µM for the first, under 10 µM for the second.

`CS(=O)(=O)N1CCC(Nc2ncc3ccc(=O)n(CCS(=O)(=O)n4cncn4)c3n2)CC1` [Compound 291] and `CS(=O)(=O)N1CCC(Nc2ncc3cc(CO)c(=O)n(CCCS(=O)(=O)n4cncn4)c3n2)CC1` [Compound 296] cannot be ordered by IC50: under 10 µM for the first, under 10 µM for the second.

`CC(C)CNc1ncc2ccc(=O)n(CC(=O)Nc3ccc(S(=O)(=O)n4cnc(C5CC5)n4)cc3)c2n1` [Compound 292] and `O=C(Cn1c(=O)ccc2cnc(NC3CCCCCC3)nc21)Nc1ccc(S(=O)(=O)n2cnc(C3CC3)n2)cc1` [Compound 295] cannot be ordered by IC50: over 200 µM for the first, over 200 µM for the second.

`CC(C(=O)Nc1ccc(S(=O)(=O)n2cnc(-c3ccccc3)n2)cc1)n1c(=O)ccc2cnc(NC3CCN(S(C)(=O)=O)CC3)nc21` (stereo not shown) [Compound 293] and `CC(C(=O)Nc1ccc(S(=O)(=O)n2cncn2)cc1)n1c(=O)ccc2cnc(NC3CCN(S(C)(=O)=O)CC3)nc21` (stereo not shown) [Compound 294] cannot be ordered by IC50: under 10 µM for the first, under 10 µM for the second.

`CS(=O)(=O)N1CCC(Nc2ncc3cc(CCO)c(=O)n(CCCS(=O)(=O)n4cncn4)c3n2)CC1` [Compound 297] and `Cc1cc2cnc(NC3CCN(S(C)(=O)=O)CC3)nc2n(CCCS(=O)(=O)n2cnc(-c3ccccc3)n2)c1=O` [Compound 299] cannot be ordered by IC50: under 10 µM for the first, under 10 µM for the second.
